Laboratory results as given in ChEMBL document CHEMBL4024798.

Key:
[1] = Apparent permeability from apical to basolateral side in human Caco2 cells at 2 uM after 2 hrs by LC-MS/MS analysis; assay type: ADME, cell-based; settings: caco-2, 2 h
[2] = Apparent permeability from basolateral to apical side in human Caco2 cells at 2 uM after 2 hrs by LC-MS/MS analysis; assay type: ADME, cell-based; settings: caco-2, 2 h

In the case of OC12CC3CC(C1)CC(NCc1cc(C4CC4)on1)(C3)C2, the Papp [1] is reported as 27.57 ×10⁻⁶ cm/s and the Papp [2] is reported as 28.33 ×10⁻⁶ cm/s.
